According to article PMC7188855, “Nucleic acid recognition and antiviral activity of 1,4-substituted terphenyl compounds mimicking all faces of the HIV-1 Rev protein positively-charged α-helix” (Scientific Reports, 2020):
Like-named read-outs stand apart in the source and are kept apart here.

Assays:
[1] = biological target: TARh hairpin containing the HIV-1 Tat-binding UCU bulge; assay: Fluorescence intensity binding to control TARh hairpin; details: for Kd(TARh)/Kd(IIBh): low ionic strength, 10 mM sodium phosphate pH 6.6, uses Kd1
Excerpt: To evaluate the specificity of subdomain IIB recognition, we measured binding to a control TARh hairpin containing the HIV-1 Tat-binding UCU bulge[23] (Fig. 1D). […] We further assessed specificity by duplicating the IIBh-23fl association experiments in the presence of a 10-fold molar excess of tRNA^Lys or a 26-base pair LTRd DNA duplex. The binding curves of the compounds were affected by the presence of competitive tRNA^Lys and to a lesser extent by LTRd (Figs. 4A, S4 and S5 and Tables 2 and S2).
These experiments measured association to IIBh-23fl or TARh-8fl RNA molecules labelled with fluorescein at extrahelical loop nucleotides U23 and U8, respectively (Fig. 1D), and were carried out under two different ionic conditions in a Victor X5 plate reader, using excitation and emission wavelengths of 485 and 520 nm, respectively. We also attempted to measure association to an alternative IIBh hairpin containing 2-aminopurine instead of adenine at unpaired loop IIB residue A19[21], but all terphenyls fluoresced at the excitation wavelength of this fluorophore. IIBh-23fl or TARh-8fl (at 100 nM concentration) was equilibrated for 5 minutes after each ligand addition in a buffer containing either 10 mM sodium phosphate pH 6.6 and 0.1 mM EDTA or 10 mM HEPES pH 7.5, 200 mM KCl and 2 mM MgCl2. In addition to the TARh specificity control, the RNA and DNA specificity of the IIBh interactions was assessed by duplicating the experiments in the presence of a 10-fold molar excess (1 μM) of either tRNA^Lys or DNA duplex LTRd. The equilibrium dissociation constants Kd were determined by fitting the fluorescence intensity curves with DYNAFIT[40]. We used one-site, two independent-sites and two interacting-sites binding models for all curves, and the best model was automatically selected by model discrimination analysis, except where indicated. The final graphs were plotted with Prism. All fluorescence intensity experiments were performed at least two times for each compound and condition.

[2] = test system: LTRc, core region of the HIV-1 LTR promoter; assay: EMSA of association to LTRc DNA; format: binding; details: 20 nM LTRc duplex; 10 mM HEPES pH 7.5, 300 mM KCl, 1 mM MgCl2, 0.5 mM EDTA
Method: The experiments monitoring RRE-Rev inhibition utilized 78 nM full-length RRE and 1.32 μM full-length Rev dissolved in 10 mM HEPES pH 7.5, 300 mM KCl, 1 mM MgCl2 and 0.5 mM EDTA binding buffer, and increasing concentrations of each compound up to 50 μM[21],[39]. The reactions were incubated at room temperature for 20 minutes and loaded onto 8% polyacrylamide gels with TB running buffer. Gels were run at 4 °C for 1–4 hours at 150 V, and the bands were stained with SYBR gold and quantified with Quantity One 4.1 analysis software. Experiments monitoring binding to the 58-base pair HIV-1 LTRc core segment utilized 20 nM LTRc duplex dissolved in the same binding buffer, and increasing concentrations of each compound. The reactions were similarly incubated and loaded onto 20% polyacrylamide gels with TB running buffer. The gels were run at 4 °C for 3.5 hours at 150 V, and the bands were stained and quantified as described above. The specificity of LTRc association was evaluated by duplicating the experiments in the presence of a 100-fold molar excess of DNAd duplex (28-fold base-pair molar excess). In all cases, we monitored the disappearance of the band corresponding to high-order RRE-Rev complexes or free LTRc, and 50% response RC50 values were determined with Prism by fitting the data to a sigmoidal inhibitory model: I−Imin=ImaxC/1+C/RC50 where I is the intensity of the band corresponding to LTRc or high-order RRE-Rev species at compound concentration C, Imax the best-fit value for maximum intensity, and Imin the minimum intensity obtained at the highest concentration of inhibitor. All EMSA experiments were repeated three times for each compound.

[3] = Cellular viability (CellTiterGlo) in mock infected cells; format: cell-based; details: human, mock infected MT-2 cells
Method: The methodology used to perform and analyse these experiments has been reported elsewhere[7],[21],[22]. Briefly, infectious supernatants were obtained from transfection of plasmid pNL4.3-Ren on 293 T cells, MT-2 cells were infected with these supernatants in the presence of the compounds, and anti-HIV activity quantification was performed 48 h post-infection by determining luciferase activity in cell lysates compared to a non-treated control (100%). Cellular viability was evaluated in mock infected cells similarly treated with the same concentrations of compounds using the CellTiterGlo (Promega) assay.

[4] = test system: HIV-1 reverse transcription; assay: qPCR quantification of early and late HIV-1 reverse transcripts in MT-2 cells; format: cell-based; details: MT-2 cells infected with NL4.3 for 5 hours
Method: MT-2 cells were pre-treated with two different concentrations of terphenyl molecules 1a, 1d or 3c, selected on the basis of the observed RRE-Rev IC50 and cellular EC50 values, and infected with NL4.3 wild-type HIV-1 for 5 hours. Total genomic DNA was isolated with a QIAamp DNA blood mini kit (Qiagen) and quantified by spectrophotometry. Early and late viral DNAs were quantified by qPCR as previously described. qPCR was performed in triplicate in a StepOne Real-Time PCR system using standard cycling conditions. Serial dilutions of genomic DNA from the 8E5 cell line, which contain a single integrated copy of HIV-1[43], were used as standard curve. The CCR5 gene was used as an endogenous control.

RRE subdomain IIB (IIBh) = assay: Isothermal titration calorimetry with IIBh; format: binding, HIV-1; details: 25 °C; 10 mM sodium phosphate pH 7.4, 0.1 mM EDTA; read-out: equilibrium dissociation constant, RRE subdomain IIB (ITC)
Method: These experiments were performed at 25 °C in MicroCal PEAQ-ITC or Nano-ITC microcalorimeters, and the data was subsequently analysed with MicroCal or Nanoanalyze software, respectively. All species were dissolved in aqueous solutions containing 10 mM sodium phosphate (pH 7.4 or 8.2) and 0.1 mM EDTA. For the IIBh:1a interaction the pH was 7.4, and 10 or 20 μM solutions of IIBh in the sample cell were titrated with 19 injections of 350 or 500 μM solutions of 1a. […]. […] For the DNAd:1a interaction, the pH was 8.2, and 800 or 900 μM solutions of 1a were titrated into 20 μM solutions of DNAd duplex in the sample cell with 19 injections of 2 µL. In both cases, the titration experiments were repeated three times, and the resulting association curves were fitted using a model with a single set of binding sites.

[5] = 10 mM sodium phosphate pH 6.6, 0.1 mM EDTA, read-out: Kd (TARh), one-site or first-site Kd1
[6] = higher ionic strength, 10 mM HEPES pH 7.5, 200 mM KCl, 2 mM MgCl2
[7] = higher ionic strength, 10 mM HEPES pH 7.5, 200 mM KCl, 2 mM MgCl2, read-out: Kd (TARh), Table S2

Structure (SMILES) | Kd [1, 5] | Kd ([1]; 10 mM sodium phosphate pH 6.6, 0.1 mM EDTA, two-site model, read-out: Kd (TARh), second-site Kd2 (in brackets)) | Kd(TARh)/Kd(IIBh), Table S2 [1, 6] | Kd [1, 7] | Kd(TARh)/Kd(IIBh) [1] | association to LTRc (EMSA) [2] | CC50 at 48 h [3] | diminished levels of early viral DNA sequences [4] | Kd (RRE subdomain IIB (IIBh))
Cc1cc(-c2cc(CCN)ccc2CCN)c(C)cc1-c1cc(CCN)ccc1CCN [Compound 1d] | 22 µM | 22 µM | 4.3 | 32 µM | 25 | associated to LTRc at low μM concentrations | > 100 µM |  | 
Cc1cc(-c2cc(CCN)ccc2CCN)c(C)cc1-c1cccc(CCN)c1 [Compound 3c] | 78 µM |  |  | > 50 µM | 12 | associated only very weakly | > 100 µM | 25% | 
COc1cc(CCN)c(-c2cc(C)c(-c3cc(CCN)c(OC)cc3CCN)cc2C)cc1CCN [Compound 1a] | 12 µM |  | 3.0 | 13 µM | 12 | associated to LTRc at low μM concentrations | > 100 µM | 25% | 500 nM
